In the test the test system is A2780 cells. Description: In-vitro cell proliferation assay (SRB, 72 hours). Format: cell-based. Conditions: Homo sapiens, A2780, 72 h, A2780 cells, 72 hours, SRB; read-out: Cell Proliferation (IC50).
Procedure: Assay 2: In-Vitro Cell Proliferation Assay
Assay Method. […] The compounds were then further diluted to 10× final concentration in culture media, whereupon 20 μL of each dilution was added to the plated cells with controls (e.g. DMSO and blank) to make a final volume of 200 μL. The final DMSO concentration in each well was 0.1%. The plates were then incubated for 72 hours at 37° C. in a 5% CO2 incubator. The number of viable cells was then assessed using sulforhodamine B (SRB) assay. Cells were fixed at 4° C. for 1 hour with the addition of 50 μL 30% trichloroacetic acid (TCA) to make a final concentration of 6% TCA. The plates were washed four times with H2O and allowed to dry for at least 1 hour, whereupon 100 μL of a 4% SRB in 1% acetic acid solution was added to each well and incubated at room temperature for at least 30 min. The plates were then washed three times with 1% acetic acid, dried, and treated with 100 μL of 10 mM Tris-Base solution. The plates were then read in a microplate reader at an absorbance of 570 nm. Background was generated on a separate plate with media only.
Determination of IC50 Values. First, the signals from the background plate were averaged, then the background was subtracted from the test plates.
In the case of `C=C/N=C\C1=CCN(C(=O)NCC2CC23CCN(C(=O)CCC(C)(C)O)CC3)C1` (centres unmarked) [Example 360, N-[[6-(4-hydroxy-4-methyl-pentanoyl)-6-azaspiro[2.5]octan-2-yl]methyl]-1,3-dihydropyrroIo[3,4-c]pyridine-2-carboxamide], the IC50 turned out to be 0.0509 µM.

In the case of `CC(=O)Nc1cnccc1C(=O)N1CCC2(CC1)CC2CNC(=O)c1cc2ccncc2o1` (centres unmarked) [Example 265, N-[[6-(3-acetamidopyridine-4-carbonyl)-6-azaspiro[2.5]octan-2-yl]methyl]furo[2,3-c]pyridine-2-carboxamide], the IC50 is 2 µM.

In the case of `O=C(NCC1CC12CCN(C(=O)c1ccnc3ncccc13)CC2)c1cc2ccncc2o1` (centres unmarked) [Example 267, N-[[6-(1,8-naphthyridine-4-carbonyl)-6-azaspiro[2.5]octan-2-yl]methyl]furo[2,3-c]pyridine-2-carboxamide], the IC50 is 2 µM.

For the molecule `O=C(NCC1CC12CCN(C(=O)c1ccc(Cn3cncn3)cc1)CC2)c1cc2ccncc2o1` (centres unmarked) [Example 251, N-[[6-[4-(1,2,4-triazol-1-ylmethyl)benzoyl]-6-azaspiro[2.5]octan-2-yl]methyl]furo[2,3-c]pyridine-2-carboxamide], the IC50 came out at 0.215 µM.

For `Cc1cnc(C(=O)N2CCC3(CC2)CC3CNC(=O)c2cc3ccncc3o2)cn1` (centres unmarked) [Example 122, N-[[6-(5-methylpyrazine-2-carbonyl)-6-azaspiro[2.5]octan-2-yl]methyl]furo[2,3-c]pyridine-2-carboxamide], the IC50 turned out to be 2 µM.

As to `O=C(NCC1CC12CCN(C(=O)c1ccc(CN3CCOCC3)cc1)CC2)c1cc2ccncc2o1` (centres unmarked) [Example 245, N-[[6-[4-(morpholinomcthyl)benzoyl]-6-azaspiro[2.5]octan-2-yl]methyl]furo[2,3-c]pyridine-2-carboxamide], the IC50 was 0.0126 µM.

For `O=C(NCC1CC12CCN(C(=O)c1ccc(N3CCS(=O)(=O)CC3)cc1)CC2)c1cc2ccncc2o1` (centres unmarked) [Example 85, N-[[6-[4-(1,1-dioxo-1,4-thiazinan-4-yl)benzoyl]-6-azaspiro[2.5]octan-2-yl)methyl]furo[2,3-c]pyridine-2-carboxamide], the IC50 is 0.0142 µM.

For `CN1CCN(C(=O)c2ccc(C(=O)N3CCC4(CC3)CC4CNC(=O)N3Cc4ccncc4C3)cc2)CC1` (centres unmarked) [Example 372, N-[[6-[4-(4-methylpiperazine-1-carbonyl)benzoyl]-6-azaspiro[2.5]octan-2-yl]methyl]-1,3-dihydropyrrolo[3,4-c]pyridine-2-carboxamide], the IC50 worked out at 0.0275 µM.

`Cc1nn(C)cc1-c1cc(C(=O)N2CCC3(CC2)CC3CNC(=O)c2cc3ccncc3o2)no1` (centres unmarked) [Example 305, N-[[6-[5-(1,3-dimethylpyrazol-4-yl)isoxazole-3-carbonyl]-6-azaspiro[2.5]octan-2-yl]methyl]furo[2,3-c]pyridine-2-carboxamide]: the IC50 came out at 0.0612 µM.

Turning to `O=C(NCC1CC12CCN(C(=O)NCc1ccc(Cl)cc1Cl)CC2)c1cc2ccncc2o1` (centres unmarked) [Example 173, N-[(6-[(2,4-dichlorophenyl)methylcarbamoyl]-6-azaspiro[2.5]octan-2-yl]methyl]furo[2,3-c]pyridine-2-carboxamide], the IC50 was found to be 2 µM.

Turning to `COc1ccc(CNC(=O)N2CCC3(CC2)CC3CNC(=O)c2cc3ccncc3o2)cc1` (centres unmarked) [Example 167, N-[[6-[(4-methoxyphenyl)methylcarbamoyl]-6-azaspiro[2.5]octan-2-yl]methyl]furo[2,3-c]pyridine-2-carboxamide], the IC50 came to 2 µM.

On to `O=C(NCC1CC12CCN(C(=O)c1cc(C3CC3)n[nH]1)CC2)c1cc2ccncc2o1` (centres unmarked) [Example 123, N-[[6-(3-cyclopropyl-1H-pyrazole-5-carbonyl)-6-azaspiro[2.5]octan-2-yl]methyl]furo[2,3-c]pyridine-2-carboxamide], for which the IC50 stood at 0.083 µM.

Consider `Cc1nc(C)c(C(=O)N2CCC3(CC2)CC3CNC(=O)c2cc3ccncc3o2)o1` (single isomer, unassigned) [Example 384, N-[[6-(2,4-dimethyloxazole-5-carbonyl)-6-azaspiro[2.5]octan-2-yl]methyl]furo[2,3-c]pyridine-2-carboxamide (single isomer)], for which the IC50 was 0.436 µM.

With `O=C(NCC1CC12CCN(C(=O)CC1CCCO1)CC2)c1cc2ccncc2o1` (centres unmarked) [Example 37, N-[[6-(2-tetrahydrofuran-2-ylacetyl)-6-azasptro[2.5]octan-2-yl]methyl]furo[2,3-c]pyridine-2-carboxamide], the IC50 is 0.643 µM.

`CS(=O)(=O)c1ccc(C(=O)N2CCC3(CC2)CC3CNC(=O)c2cc3ccncc3o2)cc1` (centres unmarked) [Example 93, N-[[6-(4-methylsulfonylbenzoyl)-6-azaspiro[2.5]octan-2-yl]methyl]furo[2,3-c]pyridine-2-carboxamide]: the IC50 turned out to be 0.878 µM.

`CN1CCOC(C(=O)N2CCC3(CC2)CC3CNC(=O)c2cc3ccncc3o2)C1` (centres unmarked) [Example 143, N-[[6-(4-methylmorpholine-2-carbonyl)-6-azaspiro[2.5]octan-2-yl]methyl]furo[2,3-c]pyridine-2-carboxamide]: the IC50 stood at 2 µM.

`CC(C)NC(=O)N1CCC2(CC1)CC2CNC(=O)c1cc2ccncc2o1` (centres unmarked) [Example 183, N-[[6-(isopropylcarbamoyl)-6-azaspiro[2.5]octan-2-yl]methyl]furo[2,3-c]pyridine-2-carboxamide]: the IC50 is 2 µM.

As to `CC(C)n1nccc1C(=O)N1CCC2(CC1)CC2CNC(=O)c1cc2ccncc2o1` (centres unmarked) [Example 325, N-[[6-(2-isopropylpyrazole-3-carbonyl)-6-azaspiro[2.5]octan-2-yl]methy]furo[2,3-c]pyridine-2-carboxamide], the IC50 came to 0.0247 µM.

With `O=C(NCC1CC12CCN(C(=O)c1cccc(-n3cnnc3)c1)CC2)c1cc2ccncc2o1` (centres unmarked) [Example 70, N-[[6-[3-(1,2,4-triazol-4-yl)benzoyl]-6-azaspiro[2.5]octan-2-yl]methyl]furo[2,3-c]pyridine-2-carboxamide], the IC50 came out at 0.492 µM.

Consider `CN1CCC(n2cc(C(=O)N3CCC4(CC3)CC4CNC(=O)c3cc4ccncc4o3)cn2)C1` (centres unmarked) [Example 307, N-[[6-[1-(1-methylpyrrolidin-3-yl)pyrazole-4-carbonyl]-6-azaspiro[2.5]octan-2-yl]methyl]furo[2,3-c]pyridine-2-carboxamide], for which the IC50 was determined as 0.0267 µM.

As to `O=C(NCC1CC12CCN(C(=O)Cc1ccncc1)CC2)c1cc2cnccc2[nH]1` (centres unmarked) [Example 278, N-[[6-[2-(4-pyridyl)acetyl]-6-azaspiro[2.5]octan-2-yl]methyl]-1H-pyrrolo[3,2-c]pyridine-2-carboxamide], the IC50 was determined as 2 µM.

In the case of `Cc1nnnn1Cc1ccc(C(=O)N2CCC3(CC2)CC3CNC(=O)c2cc3ccncc3o2)cc1` (centres unmarked) [Example 96, N-[[6-[4-[(5-methyltetrazol-1-yl]methyl]benzoyl]-6-azaspiro[2.5]octan-2-yl]methyl]furo[2,3-c]pyridine-2-carboxamide], the IC50 stood at 0.711 µM.

On to `CC(C)(C)NC(=O)N1CCC2(CC1)CC2CNC(=O)c1cc2cnccc2[nH]1` (centres unmarked) [Example 203, N-[[6-(tert-butylcarbamoyl)-6-azaspiro[2.5]octan-2-yl]methyl]-1H-pyrrolo[3,2-c]pyridine-2-carboxamide], for which the IC50 was determined as 2 µM.
